Data on 2 compounds can be found in patent US20090286813A1, “Thioxanthine Derivatives and Their Use as Inhibitors of MPO” (ASTRAZENECA AB, priority 2006, published 2009).

Structures are written as SMILES.

This assay addresses T1, human MPO (Homo sapiens, UniProt P05164).
T1 sequence (P05164 49-745): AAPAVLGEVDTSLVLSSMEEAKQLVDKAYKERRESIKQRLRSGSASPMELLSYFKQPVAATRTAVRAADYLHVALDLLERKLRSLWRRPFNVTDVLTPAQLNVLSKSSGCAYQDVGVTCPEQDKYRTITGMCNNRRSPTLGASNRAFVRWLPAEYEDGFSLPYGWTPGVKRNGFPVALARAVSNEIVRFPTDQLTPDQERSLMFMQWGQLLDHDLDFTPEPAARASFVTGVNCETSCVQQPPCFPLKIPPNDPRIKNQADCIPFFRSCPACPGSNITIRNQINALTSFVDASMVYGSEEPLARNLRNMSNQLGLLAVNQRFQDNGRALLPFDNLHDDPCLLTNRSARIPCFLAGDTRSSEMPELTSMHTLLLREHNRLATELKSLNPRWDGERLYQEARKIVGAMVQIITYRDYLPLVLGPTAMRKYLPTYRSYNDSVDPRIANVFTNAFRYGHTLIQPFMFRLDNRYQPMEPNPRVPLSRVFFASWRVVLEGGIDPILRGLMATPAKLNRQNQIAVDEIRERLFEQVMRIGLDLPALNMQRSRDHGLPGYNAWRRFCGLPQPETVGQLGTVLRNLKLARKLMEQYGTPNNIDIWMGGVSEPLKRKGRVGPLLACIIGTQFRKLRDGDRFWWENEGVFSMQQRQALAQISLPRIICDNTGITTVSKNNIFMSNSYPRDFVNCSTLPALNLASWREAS
The assay can be described thus: MPO inhibition screen (TMB oxidation, absorbance). The settings on record: in the presence of tyrosine (final concentration 8 μM); human MPO 2.5 nM. The class given is biochemical. The procedure: Methods for the determination of MPO inhibitory activity are disclosed in patent application WO 02/090575. The pharmacological activity of compounds according to the invention was tested in the following screen in which the compounds were either tested alone or in the presence of added tyrosine:
Assay buffer: 20 mM sodium/potassium phosphate buffer pH 6.5 containing 10 mM taurine and 100 mM NaCl.
Developing reagent: 2 mM 3,3′,5,5′-tetramethylbenzidine (TMB), 200 μM KI, 200 mM acetate buffer pH 5.4 with 20% DMF.
To 10 μl of diluted compounds in assay buffer, 40 μl of human MPO (final concentration 2.5 nM), with or without 20 μM tyrosine (final concentration, if present, 8 μM), was added and the mixture was incubated for 10 minutes at ambient temperature. Then 50 μl of H2O2 (final concentration 100 μM), or assay buffer alone as a control, were added. After incubation for 10 minutes at ambient temperature, the reaction was stopped by adding 10 μl 0.2 mg/ml of catalase (final concentration 18 μg/ml). The reaction mixture was left for an additional 5 minutes before 100 μl of TMB developing reagent was added. The amount of oxidised 3,3′,5,5′-tetramethylbenzidine formed was then measured after about 5 minutes using absorbance spectroscopy at about […]. IC50 values were then determined using standard procedures.

Turning to `O=c1[nH]c(=S)n(-c2cccc(OC(F)(F)F)c2)c2nc[nH]c12` [Example 3, 2-thioxo-3-[3-(trifluoromethoxy)phenyl]-1,2,3,7-tetrahydro-6H-purin-6-one], the IC50 turned out to be 2.75 µM.

Regarding `O=c1[nH]c(=S)n(-c2cnc3ccccc3c2)c2nc[nH]c12` [Example 8, 3-quinolin-3-yl-2-thioxo-1,2,3,7-tetrahydro-6H-purin-6-one], the IC50 is 4.47 µM.

As a reminder, the IC50 is the point on the concentration scale where inhibition reaches its midpoint.
